From patent publication US20200370087A1, “METHOD FOR DETERMINING MICROBIAL SUSCEPTIBILITY TO ANTIBIOTIC AGENTS” (Ascilion AB, priority 2017, published 2020)

Key:
[1] = tested on: Escherichia coli (ATCC 25922); assay: Glucose consumption susceptibility test, blood culture diluted in MHB with glucose (Example 1); assay type: cell-based; parameters: glucose concentration, t = 0 / glucose concentration, t = 60 / glucose concentration, t = 120 / glucose concentration, t = 180 / dC/dT (rate of change in glucose concentration) / glucose concentration, t = 240: unit not given here; conditions: for F = the rate of change in glucose concentration in relation to the reference / dC/dT (rate of change in glucose concentration) / glucose concentration, t = 0 / glucose concentration, t = 60 / glucose concentration, t = 120 / glucose concentration, t = 180 / glucose concentration, t = 240: E. coli; for glucose concentration, t = 0: 0 minutes; for glucose concentration, t = 60: 60 minutes; for glucose concentration, t = 120: 120 minutes; for glucose concentration, t = 180: 180 minutes; for glucose concentration, t = 240: 240 minutes
Description: (§1) Strains of Escherichia coli (ATCC 25922), Enterococcus faecalis (ATCC 29212) and Staphylococcus aureus (ATCC 29213) were inoculated in blood culture bottles (SVA, Uppsala, Sweden) and cultivated according to the manufacturer's instructions until positive.
(§2) Medium from each blood culture bottle was diluted 1:100 with cation adjusted Mueller-Hinton broth (SVA, Uppsala, Sweden) supplemented with glucose to a concentration of 1.0 mg/mL.
(§3) Glucose concentrations were measured at 0, 60, 120, 180, and 240 minutes using a WaveSense Jazz glucometer (AgaMatrix, Inc., Salem, N.H., USA) with accompanying test strips.
(§4) Susceptibility scores corresponding to MIC values were calculated as described above. A 80% threshold was applied, i.e. the lowest concentration of antibiotic that entailed a rate of change in glucose concentration that was equal to or less than 80% of the reference was selected as the Minimal Inhibitory Concentration. The rate of change was calculated between the measurements at 60 and 180 minutes.

[2] = tested on: Enterococcus faecalis (ATCC 29212); assay: as above; assay type: cell-based; parameters: glucose concentration, t = 0 / glucose concentration, t = 60 / glucose concentration, t = 120 / glucose concentration, t = 180 / glucose concentration, t = 240 / dC/dT (rate of change in glucose concentration): unit not given here; conditions: for F = the rate of change in glucose concentration in relation to the reference / dC/dT (rate of change in glucose concentration) / glucose concentration, t = 0 / glucose concentration, t = 60 / glucose concentration, t = 120 / glucose concentration, t = 180 / glucose concentration, t = 240: E. faecalis; for glucose concentration, t = 0: 0 minutes; for glucose concentration, t = 60: 60 minutes; for glucose concentration, t = 120: 120 minutes; for glucose concentration, t = 180: 180 minutes; for glucose concentration, t = 240: 240 minutes
Description: as §1, §2, §3, §4

gentamicin
F = the rate of change in glucose concentration in relation to the reference ([1]; antibiotic 0.25 μg/mL): 139% | dC/dT (rate of change in glucose concentration) ([1]; antibiotic 0.25 μg/mL): 86 | glucose concentration, t = 0 ([1]; antibiotic 0.25 μg/mL): 149 | glucose concentration, t = 60 ([1]; antibiotic 0.25 μg/mL): 152 | glucose concentration, t = 120 ([1]; antibiotic 0.25 μg/mL): 144 | glucose concentration, t = 180 ([1]; antibiotic 0.25 μg/mL): 58 | F = the rate of change in glucose concentration in relation to the reference ([1]; antibiotic 0.5 μg/mL): 121% | dC/dT (rate of change in glucose concentration) ([1]; antibiotic 0.5 μg/mL): 75 | glucose concentration, t = 0 ([1]; antibiotic 0.5 μg/mL): 144 | glucose concentration, t = 60 ([1]; antibiotic 0.5 μg/mL): 147 | glucose concentration, t = 120 ([1]; antibiotic 0.5 μg/mL): 147 | glucose concentration, t = 180 ([1]; antibiotic 0.5 μg/mL): 72 | F = the rate of change in glucose concentration in relation to the reference ([1]; antibiotic 1 μg/mL): 77% | dC/dT (rate of change in glucose concentration) ([1]; antibiotic 1 μg/mL): 48 | glucose concentration, t = 0 ([1]; antibiotic 1 μg/mL): 144 | glucose concentration, t = 60 ([1]; antibiotic 1 μg/mL): 155 | glucose concentration, t = 120 ([1]; antibiotic 1 μg/mL): 148 | glucose concentration, t = 180 ([1]; antibiotic 1 μg/mL): 111 | glucose concentration, t = 240 ([1]; antibiotic 1 μg/mL): 53 | F = the rate of change in glucose concentration in relation to the reference ([1]; antibiotic 2 μg/mL): 9% | dC/dT (rate of change in glucose concentration) ([1]; antibiotic 2 μg/mL): 6 | glucose concentration, t = 60 ([1]; antibiotic 2 μg/mL): 161 | glucose concentration, t = 120 ([1]; antibiotic 2 μg/mL): 151 | glucose concentration, t = 180 ([1]; antibiotic 2 μg/mL): 143 | glucose concentration, t = 240 ([1]; antibiotic 2 μg/mL): 140 | F = the rate of change in glucose concentration in relation to the reference ([1]; antibiotic 4 μg/mL): 7% | dC/dT (rate of change in glucose concentration) ([1]; antibiotic 4 μg/mL): 5 | glucose concentration, t = 0 ([1]; antibiotic 4 μg/mL): 147 | glucose concentration, t = 60 ([1]; antibiotic 4 μg/mL): 163 | glucose concentration, t = 120 ([1]; antibiotic 4 μg/mL): 157 | glucose concentration, t = 180 ([1]; antibiotic 4 μg/mL): 148 | glucose concentration, t = 240 ([1]; antibiotic 4 μg/mL): 148 | F = the rate of change in glucose concentration in relation to the reference ([1]; antibiotic 8 μg/mL): 7% | dC/dT (rate of change in glucose concentration) ([1]; antibiotic 8 μg/mL): 5 | glucose concentration, t = 0 ([1]; antibiotic 8 μg/mL): 144 | glucose concentration, t = 60 ([1]; antibiotic 8 μg/mL): 156 | glucose concentration, t = 120 ([1]; antibiotic 8 μg/mL): 153 | glucose concentration, t = 180 ([1]; antibiotic 8 μg/mL): 150 | glucose concentration, t = 240 ([1]; antibiotic 8 μg/mL): 144 | F = the rate of change in glucose concentration in relation to the reference ([1]; antibiotic 16 μg/mL): 1% | dC/dT (rate of change in glucose concentration) ([1]; antibiotic 16 μg/mL): 1 | glucose concentration, t = 0 ([1]; antibiotic 16 μg/mL): 143 | glucose concentration, t = 60 ([1]; antibiotic 16 μg/mL): 155 | glucose concentration, t = 120 ([1]; antibiotic 16 μg/mL): 152 | glucose concentration, t = 180 ([1]; antibiotic 16 μg/mL): 149 | glucose concentration, t = 240 ([1]; antibiotic 16 μg/mL): 153 | F = the rate of change in glucose concentration in relation to the reference ([1]; antibiotic 32 μg/mL): 6% | dC/dT (rate of change in glucose concentration) ([1]; antibiotic 32 μg/mL): 4 | glucose concentration, t = 0 ([1]; antibiotic 32 μg/mL): 148 | glucose concentration, t = 60 ([1]; antibiotic 32 μg/mL): 158 | glucose concentration, t = 120 ([1]; antibiotic 32 μg/mL): 155 | glucose concentration, t = 180 ([1]; antibiotic 32 μg/mL): 150 | glucose concentration, t = 240 ([1]; antibiotic 32 μg/mL): 147 | MIC, Measured ([1]; E.coli, 80% threshold of reference rate of change, 60 to 180 minutes, N/A = not susceptible, no MIC value can be calculated): 1 µg/mL | F = the rate of change in glucose concentration in relation to the reference ([2]; antibiotic 0.25 μg/mL): 144% | dC/dT (rate of change in glucose concentration) ([2]; antibiotic 0.25 μg/mL): 52 | glucose concentration, t = 0 ([2]; antibiotic 0.25 μg/mL): 142 | glucose concentration, t = 60 ([2]; antibiotic 0.25 μg/mL): 156 | glucose concentration, t = 120 ([2]; antibiotic 0.25 μg/mL): 143 | glucose concentration, t = 180 ([2]; antibiotic 0.25 μg/mL): 87 | F = the rate of change in glucose concentration in relation to the reference ([2]; antibiotic 0.5 μg/mL): 148% | dC/dT (rate of change in glucose concentration) ([2]; antibiotic 0.5 μg/mL): 53 | glucose concentration, t = 0 ([2]; antibiotic 0.5 μg/mL): 146 | glucose concentration, t = 60 ([2]; antibiotic 0.5 μg/mL): 160 | glucose concentration, t = 120 ([2]; antibiotic 0.5 μg/mL): 138 | glucose concentration, t = 180 ([2]; antibiotic 0.5 μg/mL): 97 | F = the rate of change in glucose concentration in relation to the reference ([2]; antibiotic 1 μg/mL): 106% | dC/dT (rate of change in glucose concentration) ([2]; antibiotic 1 μg/mL): 38 | glucose concentration, t = 0 ([2]; antibiotic 1 μg/mL): 145 | glucose concentration, t = 60 ([2]; antibiotic 1 μg/mL): 150 | glucose concentration, t = 120 ([2]; antibiotic 1 μg/mL): 138 | glucose concentration, t = 180 ([2]; antibiotic 1 μg/mL): 100 | glucose concentration, t = 240 ([2]; antibiotic 1 μg/mL): 36 | F = the rate of change in glucose concentration in relation to the reference ([2]; antibiotic 2 μg/mL): 75% | dC/dT (rate of change in glucose concentration) ([2]; antibiotic 2 μg/mL): 27 | glucose concentration, t = 0 ([2]; antibiotic 2 μg/mL): 147 | glucose concentration, t = 60 ([2]; antibiotic 2 μg/mL): 156 | glucose concentration, t = 120 ([2]; antibiotic 2 μg/mL): 143 | glucose concentration, t = 180 ([2]; antibiotic 2 μg/mL): 110 | glucose concentration, t = 240 ([2]; antibiotic 2 μg/mL): 75 | F = the rate of change in glucose concentration in relation to the reference ([2]; antibiotic 4 μg/mL): 46% | dC/dT (rate of change in glucose concentration) ([2]; antibiotic 4 μg/mL): 17 | glucose concentration, t = 0 ([2]; antibiotic 4 μg/mL): 147 | glucose concentration, t = 60 ([2]; antibiotic 4 μg/mL): 154 | glucose concentration, t = 120 ([2]; antibiotic 4 μg/mL): 151 | glucose concentration, t = 180 ([2]; antibiotic 4 μg/mL): 118 | glucose concentration, t = 240 ([2]; antibiotic 4 μg/mL): 104 | F = the rate of change in glucose concentration in relation to the reference ([2]; antibiotic 8 μg/mL): 14% | dC/dT (rate of change in glucose concentration) ([2]; antibiotic 8 μg/mL): 5 | glucose concentration, t = 0 ([2]; antibiotic 8 μg/mL): 143 | glucose concentration, t = 60 ([2]; antibiotic 8 μg/mL): 155 | glucose concentration, t = 120 ([2]; antibiotic 8 μg/mL): 134 | glucose concentration, t = 180 ([2]; antibiotic 8 μg/mL): 136 | glucose concentration, t = 240 ([2]; antibiotic 8 μg/mL): 140 | F = the rate of change in glucose concentration in relation to the reference ([2]; antibiotic 16 μg/mL): 18% | dC/dT (rate of change in glucose concentration) ([2]; antibiotic 16 μg/mL): 6 | glucose concentration, t = 0 ([2]; antibiotic 16 μg/mL): 147 | glucose concentration, t = 60 ([2]; antibiotic 16 μg/mL): 160 | glucose concentration, t = 120 ([2]; antibiotic 16 μg/mL): 152 | glucose concentration, t = 180 ([2]; antibiotic 16 μg/mL): 155 | F = the rate of change in glucose concentration in relation to the reference ([2]; antibiotic 32 μg/mL): 3% | dC/dT (rate of change in glucose concentration) ([2]; antibiotic 32 μg/mL): 1 | glucose concentration, t = 0 ([2]; antibiotic 32 μg/mL): 143 | glucose concentration, t = 60 ([2]; antibiotic 32 μg/mL): 151 | glucose concentration, t = 180 ([2]; antibiotic 32 μg/mL): 142 | glucose concentration, t = 240 ([2]; antibiotic 32 μg/mL): 148 | MIC, Measured ([2]; E.faecalis, 80% threshold of reference rate of change, 60 to 180 minutes, N/A = not susceptible, no MIC value can be calculated): 2 µg/mL
